In one series the test system is human fibroblasts. The series is described as follows: Effect on fibroblasts as surrogate for normal cells. The class given is cell-based. Conditions: fibroblasts as surrogate for normal cells; 6 uM. The source says: However, fibroblasts are more differentiated than stem cells but are able to self-replicate for defined periods of time. We tested selected compounds of the invention to determine if these compounds were just cytotoxic or if they selectively affected stem cells and, importantly, cancer cells, but not normal, healthy cells. Here, we used fibroblasts as a surrogate for normal cells. […] […] Each compound was scored for its effect on fibroblast proliferation where “+” indicates 25% inhibition of fibroblast growth, “++” 50% inhibition and “+++” 75% inhibition of growth.

A further series concerns T47D breast cancer cells. The series is described as follows: Cancer cell migration assay (wound healing / Platypus). The class given is cell-based, human. Conditions: cell line not given, FIGS. 65-80 use T47D, 120 hours; for IC50: Homo sapiens, read-out: IC50 of inhibition of cancer cell migration. The source says: Potent cancer cell migration is characteristic of cancer cell invasion of other tissues and of metastasis. Typical migration assays involve coating a cell culture plate with fibronectin, collagen or the like, plating cancer cells and making a scar across through the cells and measuring the time it takes for the cancer cells to invade the void space. An alternative approach that gives more reliable data is the Platypus System which is a special multi-well cell culture plate with a juxtaposed set of plugs that block off a circle in the center of each well. Cancer cells are plated while the plugs are in place, then they are removed after the cells attach to the plate surface. […] In our cancer cell migration assays, the number of cells that have migrated into the empty space is quantified using Image J software. The effects of known anti-migration compounds are compared to the anti-MUC1* Fab E6 and the first few small molecule leads. The effect of two novel small molecules MN1186 and MN1194, compared to the known anti-migration molecule SU11274, is shown in FIG. 22A-22U. FIG. 22V is a graph showing the measured inhibition of cancer cell migration at time 0, 24 hours or 48 hours for a number of compounds. […] FIG. 22X is a graph showing how IC50's of the small molecules of the invention were measured and calculated.
Percent inhibition of cancer cell migration was performed in a wound healing assay. The percent area that the invading cancer cells occupied, in the presence of a drug candidate compared to the controls, was quantified by Image J cell software which enables cell counting from photographs. IC50's were calculated by performing migration experiments at several compound concentrations and then applying Hill's equation. Inhibition of cancer cell proliferation was quantified by automated cell counting in the presence or absence of a drug candidate. Here, the inhibition of cancer cell proliferation was scored 1 if proliferation was inhibited by 25%, 2 if inhibited by […] and 4 for the highest degree of inhibition of proliferation, and 0 for the lowest. The effect of the drug candidates on stem cell pluripotency or proliferation was scored by eye, based on cell morphology and cell density, with 0 being no change in morphology or cell number and 4 being the most profound effect, with the stem cells taking on the morphology of a differentiating cell, along with much fewer cells indicative of inhibition of proliferation. As an example, FIGS. 30A-30F show photographs of naïve stem cell, primed stem cell and fibroblast controls. FIGS. 31A-31F show the effect of compounds of the invention on naïve state stem cells, where the number of ‘+’ signs indicates the score from 0-4 of ability of compound to inhibit pluripotency, proliferation of naïve stem cells or ability to induce their differentiation. […] FIGS. 36-44 and 65-87 show photographs and IC50 graphs of the compounds of the invention, inhibiting cancer cell migration and invasion. Cancer cell migration is a hallmark of metastatic cancer.
For the cancer cell migration experiment cancer cells were plated at varying densities into an Oris Cell Migration Assay Collagen-1 coated 96-well plate (Platypus Technologies LLC, Madison, WI). The Collagen-1 coated 96-well plate incorporates a specific vacuum plug which attaches to the bottom of each well, creating an area in which the cells cannot grow into. Once the cells have been plated at high densities into each well, they are allotted an 18-24 hour time period to attach to the bottom of the wells. Post-24 hour plugs are removed from the plate and then small molecule analogs are added to the wells. Images are taken of each well and represent time 0 (T=0) for each well. Images are taken of the wells at the 24, 48, 72, 96 and 120 hour time points. Data analysis is conducted using the images taken at these specific time point. […]

The subject of series [1] is micro-RNA-145. The series is described as follows: RT-PCR measurement of miR-145 in naïve state stem cells. Conditions: treated for 72 hours (FIG. 91A-91C). Format: cell-based, human. As to the method:
FIGS. 91A-91C show graphs of RT-PCR measurement of naïve state stem cells treated for 72 hours with compounds of the invention at the indicated concentrations, wherein the gene that is measured is micro-RNA-145, which is a harbinger of stem cell differentiation.
(§1) We used RT-PCR to measure changes in the expression of some of these super-enhancer genes, AXIN2, which is a surrogate for activated β-catenin, miR-145, MUC1 and MUC1* ligands NME7AB and NME7-X1. […] Thus, compounds of the invention, at least in part, inhibit tumor cell migration and invasiveness by inducing expression of genes that are critical for differentiation, some of which are super-enhancer target genes, and miR-145, while decreasing expression of β-catenin, MUC1 and its growth factor NME7AB. Novel compounds of the invention are powerful agents for the treatment or prevention of cancers and metastatic cancers. […] In one aspect of the invention, a biological sample from a patient is tested for the presence of MUC1*, NME7AB or NME7-X1, and upon finding that the patient's cancer is positive for MUC1*, NME7AB or NME7-X1, a compound of the invention is administered to the patient in an amount suitable to prevent or treat the cancer. In one instance, the patient sample is subjected to a test, such as PCR, to determine the amount of nucleic acid that encodes MUC1, NME7 or NME7-X1. […] In another aspect of the invention, the patient's cancer is considered to be MUC1* positive, NME7AB positive or NME7-X1 positive if expression of those genes is equal to or greater than 0.5% of EEF1A1 expression in those cells. In yet another aspect of the invention, the patient's cancer is considered to be MUC1* positive if the patient's tissue specimen is contacted with an antibody that binds to the PSMGFR peptide or the N-10 peptide and stains the tissue with a pathologist's standard score 1-4 (“+−++++”). […]

Series [2] relates to micro-RNA-145. The series is described as follows: RT-PCR measurement of miR-145 in T47D cancer cells. Format: cell-based, human. Particulars: treated for 72 hours (FIG. 92A-92C). The protocol:
FIGS. 92A-92C show graphs of RT-PCR measurement of T47D cancer cells treated for 72 hours with compounds of the invention at the indicated concentrations, wherein the gene that is measured is micro-RNA-145, which is a harbinger of stem cell differentiation
as §1

Regarding `C[C@@H]1Cc2c([nH]c3ccccc23)CN1C(=O)C1CCC(CN(C)C(=O)NC(C)(C)C)CC1` (stereo partly drawn) [MN1423], the “effect on fibroblast cells” value with human fibroblasts is recorded as “no effect”. Besides, in the series with T47D breast cancer cells, the IC50 is 12 nM and the “inhibited cancer cell migration” value was 84%. For the same molecule, in the series on micro-RNA-145 [1], the “expression of miR-145 in naïve state stem cells” value is on record as “increased expression of miR-145”. The “expression of miR-145 in T47D cancer cells” value in the series with micro-RNA-145 [2] is “increased expression of miR-145 in cancer cells”.
The matching figures for `CN(CC1CCC(C(=O)N2CCC(c3ccncc3)CC2)CC1)C(=O)OC(C)(C)C` (stereo not drawn) [MN1428, Tert-butyl methyl((4-(4-(pyridin-4-yl)piperidine-1-carbonyl)cyclohexyl)methyl)carbamate]: “no effect”, 7 nM, 79%, “increased expression of miR-145” and “increased expression of miR-145 in cancer cells”.
On to `CN(C[C@H]1CC[C@H](C(=O)N2CCc3c([nH]c4ccccc34)C2C2CC2)CC1)C(=O)NC(C)(C)C` (stereo partly drawn) [MN1413], for which, in the series with human fibroblasts, the “effect on fibroblast cells” value is listed as “no effect”. For the same molecule, in the series on T47D breast cancer cells, the IC50 was 10 nM and the “inhibited cancer cell migration” value worked out at 83%. In addition, the “expression of miR-145 in naïve state stem cells” value in the series with micro-RNA-145 [1] is “increased expression of miR-145”. For the same molecule, in the series on micro-RNA-145 [2], the “expression of miR-145 in T47D cancer cells” value is given as “increased expression of miR-145 in cancer cells”.
